Test results: patent publication US9790180B2, “Piperidine derivatives as HDAC1/2 inhibitors” (Acetylon Pharmaceuticals, Inc., priority 2014, dated 2017)

What was measured:
HDAC1 = HDAC1 (Homo sapiens (Human), UniProt Q13547); assay: HDAC enzyme assay, HDAC1; format: biochemical; conditions: 24 hours pre-incubation with enzyme; read-out: IC50 (nM) HDAC1
Method: (§1) Compounds for testing were diluted in DMSO to 50 fold the final concentration and a ten point three fold dilution series was made. The compounds were diluted in assay buffer (50 mM HEPES, pH 7.4, 100 mM KCl, 0.001% Tween-20, 0.05% BSA, 20 μM tris(2-carboxyethyl)phosphine) to 6 fold their final concentration. The HDAC enzymes (purchased from BPS Biosciences) were diluted to 1.5 fold their final concentration in assay buffer and pre-incubated with the compounds for 24 hours prior to addition of the substrate.
(§2) The substrate tripeptide substrate 3 (synthesized in house) for each enzyme was equal to the Km as determined by a substrate titration curve. The substrates were diluted in assay buffer at 6× their final concentration with 0.3 μM sequencing grade trypsin (Sigma). The substrate/trypsin mix was added to the enzyme/compound mix, the plate was shaken for 60 seconds and placed into a Spectramax M5 microtiter plate reader. The development of fluorescence was monitored for 30 min and the linear rate of the reaction was calculated. The IC50 was determined using Graph Pad Prism by a four parameter curve fit. The IC50 values obtained for the compounds of this invention are found in Table 1. Examples of the curves are found in FIGS. 1 and 4.

HDAC2 = HDAC2 (Homo sapiens (Human), UniProt Q92769); assay: HDAC enzyme assay, HDAC2; format: biochemical; conditions: 24 hours pre-incubation with enzyme; read-out: IC50 (nM) HDAC2
Chain of HDAC2 (Q92769 whole entry): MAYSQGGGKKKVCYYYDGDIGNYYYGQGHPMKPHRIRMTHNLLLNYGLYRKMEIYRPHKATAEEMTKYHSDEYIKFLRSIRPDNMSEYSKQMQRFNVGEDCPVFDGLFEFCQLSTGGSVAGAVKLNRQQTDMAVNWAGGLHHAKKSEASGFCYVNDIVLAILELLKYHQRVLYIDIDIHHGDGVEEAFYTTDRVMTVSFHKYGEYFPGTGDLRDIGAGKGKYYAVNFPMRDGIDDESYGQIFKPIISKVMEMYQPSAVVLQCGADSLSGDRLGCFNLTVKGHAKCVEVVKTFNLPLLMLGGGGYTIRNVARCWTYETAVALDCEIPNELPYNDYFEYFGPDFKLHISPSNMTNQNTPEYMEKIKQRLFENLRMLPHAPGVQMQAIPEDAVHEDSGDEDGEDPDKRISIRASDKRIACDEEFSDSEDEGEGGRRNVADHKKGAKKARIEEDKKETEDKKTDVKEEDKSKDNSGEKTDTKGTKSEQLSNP
Method: as §1, §2

HDAC3 = HDAC3 (Homo sapiens (Human), UniProt O15379); assay: HDAC enzyme assay, HDAC3; format: biochemical; conditions: 24 hours pre-incubation with enzyme; read-out: IC50 (nM) HDAC3
Chain of HDAC3 (O15379 whole entry): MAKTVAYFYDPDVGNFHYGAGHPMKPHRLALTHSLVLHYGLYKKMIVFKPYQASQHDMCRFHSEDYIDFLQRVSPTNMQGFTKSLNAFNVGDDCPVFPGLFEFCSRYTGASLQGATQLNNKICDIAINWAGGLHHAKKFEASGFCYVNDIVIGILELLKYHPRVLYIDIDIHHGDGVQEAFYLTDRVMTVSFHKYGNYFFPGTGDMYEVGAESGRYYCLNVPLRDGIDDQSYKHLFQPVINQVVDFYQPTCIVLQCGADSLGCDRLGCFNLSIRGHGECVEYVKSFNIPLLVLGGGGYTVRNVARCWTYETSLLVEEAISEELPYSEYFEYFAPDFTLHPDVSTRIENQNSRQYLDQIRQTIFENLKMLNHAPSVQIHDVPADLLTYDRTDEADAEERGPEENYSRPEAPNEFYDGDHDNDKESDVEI
Chain of HDAC3 (Q9Y618 395-489 partner): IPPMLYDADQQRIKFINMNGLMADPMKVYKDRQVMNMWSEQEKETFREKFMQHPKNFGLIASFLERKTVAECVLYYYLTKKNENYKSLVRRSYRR
Method: as §1, §2

hERG channel = hERG channel (Homo sapiens (Human), UniProt Q12809); assay: hERG assay (QPatch, CHO cell line expressing hERG channels); format: cell-based; conditions: In vitro tox
Chain of hERG channel (Q12809 whole entry): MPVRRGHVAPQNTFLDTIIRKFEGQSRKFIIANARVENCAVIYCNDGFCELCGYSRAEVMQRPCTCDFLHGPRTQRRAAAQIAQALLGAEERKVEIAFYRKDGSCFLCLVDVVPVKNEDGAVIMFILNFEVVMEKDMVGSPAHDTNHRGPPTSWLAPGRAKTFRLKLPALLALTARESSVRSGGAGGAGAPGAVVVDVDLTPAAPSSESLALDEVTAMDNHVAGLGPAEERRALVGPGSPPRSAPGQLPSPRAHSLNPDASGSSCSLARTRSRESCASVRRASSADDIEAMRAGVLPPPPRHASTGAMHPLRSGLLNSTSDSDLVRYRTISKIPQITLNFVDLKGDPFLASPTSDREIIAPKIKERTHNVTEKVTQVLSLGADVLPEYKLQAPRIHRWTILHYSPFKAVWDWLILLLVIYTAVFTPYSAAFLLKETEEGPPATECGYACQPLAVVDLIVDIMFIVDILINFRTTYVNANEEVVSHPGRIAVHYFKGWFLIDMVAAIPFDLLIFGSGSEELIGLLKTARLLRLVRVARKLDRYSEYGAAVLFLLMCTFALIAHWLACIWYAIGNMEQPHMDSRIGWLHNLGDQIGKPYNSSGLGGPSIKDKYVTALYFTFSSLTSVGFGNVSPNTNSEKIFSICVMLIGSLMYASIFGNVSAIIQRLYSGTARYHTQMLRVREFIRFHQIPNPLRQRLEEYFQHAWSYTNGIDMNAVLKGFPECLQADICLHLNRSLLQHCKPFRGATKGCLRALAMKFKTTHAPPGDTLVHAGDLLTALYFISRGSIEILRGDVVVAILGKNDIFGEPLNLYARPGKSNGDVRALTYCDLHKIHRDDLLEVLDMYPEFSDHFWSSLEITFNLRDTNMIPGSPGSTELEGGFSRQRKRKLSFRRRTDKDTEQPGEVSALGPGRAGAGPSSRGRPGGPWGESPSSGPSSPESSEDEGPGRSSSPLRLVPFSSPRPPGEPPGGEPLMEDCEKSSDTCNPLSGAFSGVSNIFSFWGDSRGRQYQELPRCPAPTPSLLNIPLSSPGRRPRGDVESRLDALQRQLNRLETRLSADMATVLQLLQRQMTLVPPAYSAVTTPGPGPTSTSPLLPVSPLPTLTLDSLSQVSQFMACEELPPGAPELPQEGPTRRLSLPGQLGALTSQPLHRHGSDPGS
Method: For hERG assays, a CHO cell line stably transfected with hERG cDNA and expressing hERG channels were seeded into a QPatch plate (Sophion) at a density of 3-8×10^6 cells/ml. The cells were voltage clamped at a holding potential of −80 mV. The hERG current was activated by depolarizing at +20 mV for 5 sec, after which the current was taken back to −50 mV for 5 sec to remove the inactivation and observe the deactivating tail current. The maximum amount of tail current size was used to determine hERG current amplitude. Six doses (30, 10, 3, 1, 0.3 and 0.1 μM) of Compound 003 were chosen to obtain fitting curves and IC50. Data were analyzed using Assay Software provided by Sophion and Graphpad Prism.

[1] = Rat cassette pharmacokinetics; format: in vivo; conditions: male, SD, plasma
Method: Male SD rats were fasted overnight. Compounds of the invention were dissolved in dimethyl acetamide at 10 times the final concentration, then Solutol HS 15 (BASF) was added to a final concentration of 10%. Finally 80% saline was added and vortexed to achieve a clear solution. For the IV dosing three animals were injected via the foot dorsal vein with 1 mg/kg compound. For the PO dosing 5 mg/kg of compound was delivered by oral gavage. Blood was collected via the tail vein into K2EDTA tubes at 5 minutes, 15 minutes, 30 minutes, 1 hour, 2 hours, 4 hours, 8 hours and 24 hours after dosing. The blood was centrifuged at 2000 g for 5 minutes at 4° C. to obtain plasma. The plasma was extracted with acetonitrile and the level of compound was analyzed by LC/MS/MS. The level of compound in plasma was calculated from a standard curve in rat plasma. The IV clearance and area under the curve were calculated using WinNonLin software. The dose adjusted area under the curve for the IV and oral dosing were used to calculate the oral bioavailability.

[2] = system: CYP1A2, CYP2C9, CYP2C19, CYP3A4, CYP2D6; assay: Cyp inhibition in human liver microsomes; format: in vitro ADME; conditions: In vitro tox; human liver microsomes
Method: For Cyp inhibition, human live microsomes from BD Gentest were incubated with Compound 003 (10, 3.33, 1.11, 0.37, 0.12, 0.04, 0.01 μM) and substrate (CYP1A2: Phenacetin at 30 μM; CYP2C9: Diclofenac at 10 μM; CYP2C19: S-Mephenytoin at 35 μM; CYP3A4: Midazolam at 5 μM and Testosterone at 80 μM; CYP2D6: Bufuralol at 10 μM) for the following incubation times: CYP1A2, 2C9, 2D6: 10 minutes, 37° C.; CYP2C19: 45 minutes, 37° C.; CYP3A4: 5 minutes, 37° C. Substrate conversion was measured by liquid chromatography/mass spectrometry/mass spectrometry (LC/MS/MS). Inhibition was calculated by curve fitting in Graph Pad Prism.

[3] = rat cassette dosing, 5 mg/kg PO

Chain of HDAC1 (Q13547 whole entry): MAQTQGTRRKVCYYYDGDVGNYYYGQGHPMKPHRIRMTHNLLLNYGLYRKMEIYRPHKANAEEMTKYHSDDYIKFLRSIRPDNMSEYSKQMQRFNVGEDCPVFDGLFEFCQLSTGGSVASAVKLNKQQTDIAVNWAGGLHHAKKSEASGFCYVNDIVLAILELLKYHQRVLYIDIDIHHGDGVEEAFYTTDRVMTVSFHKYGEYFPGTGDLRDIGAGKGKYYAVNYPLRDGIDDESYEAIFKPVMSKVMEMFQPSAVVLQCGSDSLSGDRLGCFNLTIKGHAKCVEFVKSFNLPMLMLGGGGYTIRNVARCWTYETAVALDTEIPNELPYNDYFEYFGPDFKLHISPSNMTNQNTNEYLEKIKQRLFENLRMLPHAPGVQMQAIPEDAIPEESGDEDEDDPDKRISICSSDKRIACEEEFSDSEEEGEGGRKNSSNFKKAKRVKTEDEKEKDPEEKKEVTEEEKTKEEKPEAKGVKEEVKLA

| Structure (SMILES) | IC50 (HDAC1) | IC50 (HDAC2) | IC50 (HDAC3) | also measured |
| --- | --- | --- | --- | --- |
| Nc1ccc(-c2cccs2)cc1NC(=O)c1ccc(NC2CCN(C(=O)N3CCCC3)CC2)cc1 [Compound 006] | 4.7 nM | 22 nM | 274 nM | hERG (hERG channel): >30 µM; bioavailability ([1]; 5 mg/kg, rat, oral AUC to IV AUC, dose adjusted): 76%; AUC [1, 3]: 31600 ng·h/mL; Cmax [1, 3]: 1520 ng/mL; half-life ([1]; rat cassette dosing, 5 mg/kg PO, read-out: PO T½ (converted)): 14.5 h; CL renal ([1]; rat cassette dosing, IV 1 mg/kg, read-out: IV Clr. (converted)): 2.5 mL/min/kg; Cyp [2]: >10 µM |
| Nc1ccc(-c2cccs2)cc1NC(=O)c1cnc(NC2CCN(c3ccccc3)CC2)nc1 [Compound 027] | 121 nM | 690 nM | > 2000 nM |  |
| Nc1ccc(-c2cccs2)cc1NC(=O)c1ccc(NC2CCN(C(=O)C3CCCCC3)CC2)cc1 [Compound 021] | 15 nM | 72 nM | 555 nM |  |
| CC1(Nc2ccc(C(=O)Nc3cc(-c4ccncc4)ccc3N)cc2)CCN(C(=O)N2CCOCC2)CC1 [Compound 029] |  | 17 nM | 541 nM |  |
| Nc1ccc(-c2ccccc2)cc1NC(=O)c1cnc(NC2CCNCC2)nc1 [Compound 039] | 17 nM | 59 nM | 321 nM |  |
| CC1(Nc2ncc(C(=O)Nc3cc(-c4cccs4)ccc3N)cn2)CCN(C(=O)N2CCC(F)(F)CC2)CC1 [Compound 012] | 19 nM | 177 nM | 1270 nM |  |
| CC1(Nc2ccc(C(=O)Nc3cc(-c4cccnc4)ccc3N)cc2)CCN(C(=O)N2CCOCC2)CC1 [Compound 031] | 91 nM | 71 nM | 264 nM |  |
| Nc1ccc(-c2cccs2)cc1NC(=O)c1ccc(NC2CCN(C(=O)N3CCOCC3)CC2)cc1 [Compound 020] | 3.7 nM | 17 nM | 304 nM |  |
| CCC1(Nc2ccc(C(=O)Nc3cc(-c4cccs4)ccc3N)cc2)CCN(C(=O)N2CCOCC2)CC1 [Compound 017] | 18 nM | 99 nM | 1740 nM |  |
| Nc1ccc(-c2ccccc2)cc1NC(=O)c1cnc(N(c2ccccc2)C2CCN(C(=O)Cc3c[nH]c4ccccc34)CC2)nc1 [Compound 034] | 93 nM | 346 nM | > 2000 nM |  |
| Nc1ccc(-c2cccs2)cc1NC(=O)c1ccc(NC2CCN(C(=O)C3CCOCC3)CC2)cc1 [Compound 022] | 5 nM | 18 nM | 203 nM |  |
| CN1CCC(Nc2ncc(C(=O)Nc3cc(-c4cccs4)ccc3N)cn2)(c2ccccc2)CC1 [Compound 026] | 10 nM | 72 nM | 315 nM |  |
| Nc1ccc(-c2ccccc2)cc1NC(=O)c1cnc(NC2CCNc3ccccc32)nc1 (centres unmarked) [Compound 038] | 101 nM | 319 nM | > 2000 nM |  |
| CN1CCN(C(=O)N2CCC(C)(Nc3ccc(C(=O)Nc4cc(-c5cccs5)ccc4N)cc3)CC2)CC1 [Compound 016] | 3.2 nM | 13 nM | 145 nM |  |
| Nc1ccc(-c2ccncc2)cc1NC(=O)c1ccc(NC2CCN(C(=O)N3CCCC3)CC2)cc1 [Compound 032] | 17 nM | 20 nM | 397 nM |  |
| CC1(Nc2ccc(C(=O)Nc3cc(-c4ccccc4)ccc3N)cc2C2CC2)CCN(C(=O)N2CCOCC2)CC1 [Compound 037] | 432 nM | 377 nM | 1860 nM |  |

More lines, main results first:

| IC50 (HDAC1) | IC50 (HDAC2) | IC50 (HDAC3) | Structure (SMILES) | also measured |
| --- | --- | --- | --- | --- |
| 63 nM | 299 nM | > 2000 nM | CC1(Nc2ncc(C(=O)Nc3cc(-c4cccs4)ccc3N)cn2)CCN(C(=O)N2CCC(O)CC2)CC1 [Compound 014] |  |
| 8 nM | 39 nM | 277 nM | CN1CCC(Nc2ncc(C(=O)Nc3cc(-c4ccccc4)ccc3N)cn2)CC1 [Compound 040] |  |
| 210 nM | 714 nM | > 2000 nM | CN1CCC(Nc2ncc(C(=O)Nc3cc(-c4ccccc4)ccc3N)cn2)c2ccccc21 (centres unmarked) [Compound 042] |  |
| 32 nM | 145 nM | 250 nM | Nc1ccc(-c2cccs2)cc1NC(=O)c1cnc(NC2CCN(C(=O)N3CCCCC3)CC2)nc1 [Compound 009] |  |
| 4 nM | 14 nM | 412 nM | CC1(Nc2ccc(C(=O)Nc3cc(-c4cccs4)ccc3N)cc2)CCN(C(=O)N2CCCC2)CC1 [Compound 013] |  |
| 7 nM | 26 nM | 355 nM | Nc1ccc(-c2cccs2)cc1NC(=O)c1ccc(NC2CCN(C(=O)C3(O)CCCC3)CC2)cc1 [Compound 025] |  |
| 3.9 nM | 20 nM | 267 nM | CCC1(Nc2ccc(C(=O)Nc3cc(-c4cccs4)ccc3N)cc2)CCN(C(=O)N2CCNCC2)CC1 [Compound 023] |  |
| 9 nM | 37 nM | 124 nM | CC1(Nc2ncc(C(=O)Nc3cc(-c4cccs4)ccc3N)cn2)CCN(C(=O)N2CCOCC2)CC1 [Compound 008] |  |
| 7.3 nM | 26 nM |  | CC1(Nc2ncc(C(=O)Nc3cc(-c4cccs4)ccc3N)cn2)CCN(C(=O)N2CCNCC2)CC1 [Compound 010] |  |
| 6 nM | 26 nM | 287 nM | Nc1ccc(-c2cccs2)cc1NC(=O)c1ccc(NC2CCN(C(=O)C3(O)CCCCC3)CC2)cc1 [Compound 024] |  |
| 3.2 nM | 12 nM | 149 nM | CC1(Nc2ccc(C(=O)Nc3cc(-c4cccs4)ccc3N)cc2)CCN(C(=O)N2CCNCC2)CC1 [Compound 015] |  |
| 74 nM | 996 nM | > 2000 nM | Cc1[nH]c2ccccc2c1CC(=O)N1CCC(N(c2ccccc2)c2ncc(C(=O)Nc3cc(-c4ccccc4)ccc3N)cn2)CC1 [Compound 036] |  |
| 8.5 nM | 32 nM | 201 nM | CN1CCN(C(=O)N2CCC(C)(Nc3ncc(C(=O)Nc4cc(-c5cccs5)ccc4N)cn3)CC2)CC1 [Compound 011] |  |
| 74 nM | 443 nM | > 2000 nM | Nc1ccc(-c2cccs2)cc1NC(=O)c1ccc(NC2CCN(c3ccccc3)CC2)cc1 [Compound 028] |  |
| 118 nM | 703 nM | 929 nM | CC1(Nc2ncc(C(=O)Nc3cc(-c4cccs4)ccc3N)cn2)CCN(C(=O)Oc2ccccc2)CC1 [Compound 007] |  |
| 12 nM | 78 nM | 516 nM | Nc1ccc(-c2cccs2)cc1NC(=O)c1cnc(N2CCCC23CCN(C(=O)N2CCCC2)CC3)nc1 [Compound 018] |  |
| 7.1 nM | 9.4 nM | 466 nM | CC1(Nc2ccc(C(=O)Nc3cc(-c4ccncc4)ccc3N)cc2)CCN(C(=O)N2CCCC2)CC1 [Compound 030] |  |
